Experiment: Body weight in MBP EAE rat model
Type: in vivo, Lewis rats
Settings: Group 2F; at study termination
Description: (§1) Body weight loss can be the first sign of disease initiation, while a sudden marked weight gain tends to accompany remission of EAE symptoms. Therefore, determination of individual body weights of animals was made shortly before EAE induction on study day 0 (study commencement) and thereafter on a daily basis throughout the entire 21-day observation period.
as §1, with “This working EXAMPLE discloses the weight change of rats subjected to the experiment described in Example 7. Body” for “Body”, “and” for “and thereafter”, “the” for “the entire”

C[C@@H]1C[C@H]2[C@@H]3CCC4=CC(=O)C=C[C@]4(C)[C@@]3(F)[C@@H](O)C[C@]2(C)[C@@]1(O)C(=O)CO [Dexamethasone]
mean body weight lost: 2%
